Bridge positions count the residues as written; N and C are the ends. Square brackets hold non-standard residues; d marks the D form. Peptide text beside a SMILES is read from it. * marks the point of attachment. Heptanoyl(6-Me) = CC(C)CCCCC(=O)*; Dab = NCC[C@H](N)C(=O)O
Columns and labels:
Klebsiella pneumoniae = test: microdilution in broth (reference method); assay type: cell-based
Experimental: (§1) So as to be able to evaluate the efficacy of the method according to the invention, the different strains were analyzed beforehand by microdilution in broth in order to determine their status (sensitive or resistant). This method is regarded as the reference method by the CLSI and EUCAST.

Escherichia coli = test: microdilution in broth (reference method); assay type: cell-based
Experimental: as §1

## CC(C)CCCCC(=O)N[C@@H](CCN)C(=O)N[C@H](C(=O)N[C@@H](CCN)C(=O)N[C@H]1CCNC(=O)[C@H]([C@@H](C)O)NC(=O)[C@H](CCN)NC(=O)[C@H](CCN)NC(=O)[C@H](CC(C)C)NC(=O)[C@@H](CC(C)C)NC(=O)[C@H](CCN)NC1=O)[C@@H](C)O [colistin] ({Heptanoyl(6-Me)}-[Dab]T[Dab][Dab][Dab][dL]L[Dab][Dab]T; lactam 4-C)
Klebsiella pneumoniae; strain KP_R9 (chromosomal)
  Statuts par microdilution: Résistante
Klebsiella pneumoniae; strain KP_S10
  Statuts par microdilution: Sensible
Klebsiella pneumoniae; strain KP_S15
  Statuts par microdilution: Sensible
Klebsiella pneumoniae; strain KR_R16 (chromosomal)
  Statuts par microdilution: Résistante
Escherichia coli; strain EC_R16 (mcr-1 plasmid)
  Statuts par microdilution: Résistante
Escherichia coli; strain EC_R17 (mcr-1 plasmid)
  Statuts par microdilution: Résistante
Escherichia coli; strain EC_S10
  Statuts par microdilution: Sensible
Escherichia coli; strain EC_S15
  Statuts par microdilution: Sensible

Reference: patent publication US12460243B2, “Mass spectrometry determination of the sensitivity or resistance of bacteria to an antibiotic” (priority 2019, dated 2025)
